{"source": "paper PMC6706640", "about": "“Systematic mapping of protein‐metabolite interactions in central metabolism of Escherichia coli” (Molecular Systems Biology, 2019)", "key": {"[1]": {"molecular_target": "T1, 6-phosphofructokinase I (PfkA) (Escherichia coli, UniProt P0A796)", "T1 construct": "full-length His-tagged protein from ASKA library clone (E. coli K-12 ORF collection)", "T1 sequence (P0A796 1-320)": "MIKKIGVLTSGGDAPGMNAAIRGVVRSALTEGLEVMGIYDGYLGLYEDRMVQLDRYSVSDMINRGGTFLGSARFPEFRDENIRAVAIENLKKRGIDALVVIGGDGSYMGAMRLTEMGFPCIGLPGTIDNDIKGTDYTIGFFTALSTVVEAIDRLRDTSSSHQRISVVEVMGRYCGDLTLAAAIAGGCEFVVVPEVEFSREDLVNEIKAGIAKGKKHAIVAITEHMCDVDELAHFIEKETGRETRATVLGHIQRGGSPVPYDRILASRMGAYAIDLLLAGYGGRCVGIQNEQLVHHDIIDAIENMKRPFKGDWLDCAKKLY", "experiment": "ligand-detected T1rho 1H NMR", "type": "binding", "conditions": "15 uM monomer, 200 uM metabolite in mix, pH 7.5, 298 K, 5 mM MgCl2"}, "[2]": {"molecular_target": "T2, NADP+-dependent glucose-6-phosphate dehydrogenase (Zwf) (Escherichia coli, UniProt P0AC53)", "T2 construct": "full-length His-tagged protein from ASKA library clone (E. coli K-12 ORF collection)", "T2 sequence (P0AC53 whole entry)": "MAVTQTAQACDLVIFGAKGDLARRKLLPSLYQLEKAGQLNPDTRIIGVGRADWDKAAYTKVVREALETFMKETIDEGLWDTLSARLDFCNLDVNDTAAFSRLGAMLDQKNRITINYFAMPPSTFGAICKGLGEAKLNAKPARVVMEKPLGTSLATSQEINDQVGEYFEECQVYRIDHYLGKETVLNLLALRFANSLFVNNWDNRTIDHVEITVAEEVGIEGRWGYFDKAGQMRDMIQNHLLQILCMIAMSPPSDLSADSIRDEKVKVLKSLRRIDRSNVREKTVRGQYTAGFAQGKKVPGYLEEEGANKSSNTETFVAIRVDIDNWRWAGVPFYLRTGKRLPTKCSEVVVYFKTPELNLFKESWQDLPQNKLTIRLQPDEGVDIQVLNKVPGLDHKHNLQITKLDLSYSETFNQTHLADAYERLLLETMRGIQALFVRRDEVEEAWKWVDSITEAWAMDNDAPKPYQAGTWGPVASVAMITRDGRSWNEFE", "experiment": "ligand-detected T1rho 1H NMR; inhibition checked by NADPH formation assay", "type": "biochemical", "conditions": "NMR: 15 uM monomer, 200 uM metabolite in mix, pH 7.5, 298 K, 5 mM MgCl2; activity: 2 and 10 mM GTP, 2 mM G6P, 1 mM NADP+, 30 C"}, "enolase (Eno)": {"molecular_target": "T3, enolase (Eno) (Escherichia coli, UniProt P0A6P9)", "T3 construct": "full-length His-tagged protein from ASKA library clone (E. coli K-12 ORF collection)", "T3 sequence (P0A6P9 2-432)": "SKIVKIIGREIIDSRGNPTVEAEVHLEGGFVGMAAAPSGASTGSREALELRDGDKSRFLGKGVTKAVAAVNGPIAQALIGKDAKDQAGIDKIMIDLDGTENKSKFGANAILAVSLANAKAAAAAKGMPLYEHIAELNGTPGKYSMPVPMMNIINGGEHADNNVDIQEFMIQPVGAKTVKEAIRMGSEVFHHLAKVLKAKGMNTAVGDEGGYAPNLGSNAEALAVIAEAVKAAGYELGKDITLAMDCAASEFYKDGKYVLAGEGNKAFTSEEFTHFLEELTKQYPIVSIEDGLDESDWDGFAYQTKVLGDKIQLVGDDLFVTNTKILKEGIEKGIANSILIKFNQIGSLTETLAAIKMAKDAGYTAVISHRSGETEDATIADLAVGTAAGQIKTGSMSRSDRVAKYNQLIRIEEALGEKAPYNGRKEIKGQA", "experiment": "ligand-detected T1rho 1H NMR", "type": "binding", "conditions": "15 uM monomer, 200 uM metabolite in mix, pH 7.5, 298 K, 5 mM MgCl2"}}}
{"smiles": "Nc1ncnc2c1ncn2[C@@H]1O[C@H](COP(=O)(O)O)[C@@H](O)[C@H]1O", "note": "[AMP]", "values": [{"measurement": "ΔRF", "setting": "[1]", "result": "two of which were detected in both datasets (Eno–PEP and PfkA–AMP)"}]}
{"smiles": "Nc1nc2c(ncn2[C@@H]2O[C@H](COP(=O)(O)OP(=O)(O)OP(=O)(O)O)[C@@H](O)[C@H]2O)c(=O)[nH]1", "note": "[GTP]", "values": [{"measurement": "ΔRF", "setting": "[2]", "result": "ATP and GTP indeed inhibited Zwf even at physiological concentrations of MgCl2"}]}
{"smiles": "C=C(OP(=O)(O)O)C(=O)O", "note": "[phosphoenolpyruvate]", "values": [{"measurement": "ΔRF", "setting": "enolase (Eno)", "result": "two of which were detected in both datasets (Eno–PEP and PfkA–AMP)"}]}
